Results reported in US5786385A, “Polyacetylenes” (priority 1993, dated 1998).
Where two headings read alike, the source gives them in different places.

Experiments:
[1] = Solubility / lipophilicity; format: physicochemical
[2] = test system: pentobarbitone sodium induced sleep; test: Pentobarbitone sodium induced sleep in rats (sleeping time), analeptic action; format: in vivo, rat; conditions: for ED50: after intraperitoneal 40 mg/kg pentobarbitone sodium, read-out: dose reducing "sleeping time" by 50%
Description: The effects of cunaniol on pentobarbitone sodium induced sleep in rats were compared with those of the analeptic bemegride. 5 mg/kg of cunaniol administered by intraperitoneal injection antagonises pentobarbitone while 7.4 mg/kg reduces "sleeping time" by 50% after intraperitoneal administration of a concentration of 40 mg/kg pentobarbitone sodium.

[3] = Potency of cis-cunaniol relative to the trans form; conditions: cis form versus trans form; only about 1/60th
[4] = Craig Distribution studies (Kp value); format: physicochemical; conditions: obtained previously from Craig Distribution studies
Description: Crude syrup (190 g.) from the cold petrol extraction was dissolved in upper phase solvent (150 mls.). A steady state distribution program was used, based on a Kp value for cunaniol acetate of 0.54 obtained previously from Craig Distribution studies. The mixture was then loaded into the SSDM dosage pump.

[5] = for stability to air and light: exposure to light and air / oxygen
central nervous system = test: Central nervous system stimulant / convulsant activity compared with picrotoxin; antagonism by anticonvulsants; format: in vivo; conditions: for antagonism of cunaniol convulsant action: prior exposure to anticonvulsant
From the text: (§1) Cunaniol is about ten times as active and ten times as rapid as the classic central nervous system stimulant picrotoxin. Convulsant action can be antagonised by prior exposure to anticonvulsants such as phenobarbitone or troxidone.

frogs = test: Administration to frogs by injection or by topical application: convulsions and death; format: in vivo, frog
From the text: as §1

[6] = test system: frog spinal cord preparation; test: Frog spinal cord preparation
From the text: as §1

mice = test: Convulsant action in mice, intraperitoneal or oral; format: in vivo, mouse; conditions: for convulsant type in mice: intraperitoneally or orally; for similarity of convulsant actions to cunaniol: mice
[7] = Convulsant action and lethality in rats, intraperitoneal injection; format: in vivo, rat; conditions: rat, in vivo, ip, read-out: non-convulsant dose
Description: (§2) Rats are also sensitive to the convulsant actions of cunaniol, a convulsant dose being 5 mg/kg. A dosage of 2.24 mg/kg is a non-convulsant dose while 10 mg/kg causes death (intraperitoneal injection).

Rats = test: as above; format: in vivo, rat
Description: as §2

GABAergic system = test: GABA (gamma-amino-butyric acid) antagonism
cardiovascular system = test: Action on the cardiovascular system; conditions: in vivo
isolated rabbit heart = test: Isolated rabbit heart perfusion
rat heart = test: Rat heart contractability and heart block
[8] = test system: intact anaesthetised rats; test: Pressor response in intact anaesthetised rats; format: in vivo, rat; conditions: intravenous injection
Description: (§3) In intact anaesthetised rats, a sustained pressor response is produced by cunaniol administered by intravenous injection in doses of 0.5 mg or greater. In pithed rats the response to cunaniol was abolished, indicating a central action of the polyacetylene.

pithed rats = test: Pressor response in pithed rats; format: in vivo, rat; conditions: indicating a central action
Description: as §3

[9] = test system: frog and rat isolated striated muscle preparations; test: Frog and rat isolated striated muscle preparations, nerve stimulation
From the text: Experiments have been carried out on frog and rat isolated striated muscle preparations.

[10] = test system: isolated rat phrenic nerve-diaphragm preparation; test: Isolated rat phrenic nerve-diaphragm preparation
From the text: This is not reversed by neostigmine, i.e. is not curare-like.

guppies = test: Toxicity test on guppies; format: in vivo, guppy
From the text: Cunaniol or its derivatives may also be used as an effective toxin. When tested on guppies at approximately 10^-6 M the poison gives rise to restless movement after two minutes, wild swimming, convulsion and coma with the body bent laterally after ten minutes.

viviparous fish = test: Release of fry from viviparous fish; format: in vivo; conditions: due to effects on neuromuscular function

Compound: CC#CC#CC#C/C=C/C1OCCCC1O (stereo not shown)
- solubility in water ([1]; water): low solubility in water

Compound: CCC1(C)CC(=O)NC(=O)C1 [bemegride, reference compound]
- ED50 ([2]; Rattus norvegicus, ip, rats): 45.7 mg/kg

Compound: CC#CC#CC#C/C=C\C1OCCCC1O (stereo not drawn) [cis-cunaniol]
- potency relative to trans form [3]: about 1/60

Compound: CC#CC#CC#CC=CC1OCCCC1OC(C)=O (stereo not shown) [cunaniol acetate]
- Kp value [4]: 0.54
- hydrolysis ([5]; with sodium bicarbonate): easily hydrolysed

Compound: CC#CC#CC#CC=CC1OCCCC1O (stereo not shown) [cunaniol]
- rapidity relative to picrotoxin (central nervous system; ten times as rapid as picrotoxin): about ten
- effect in frogs (frogs; by injection or by topical application): clonic convulsions and death
- LD50 (frogs; frogs, intraperitoneal injection): 12.8 mg/kg
- effects on frog spinal cord preparation [6]: resemble those of nicotine
- potency among the clonic convulsants (mice; both routes of administration, compared with leptazol, picrotoxin): most potent of the clonic convulsants
- speed of onset of effects (mice; compared with the other compounds): usually occurred more rapidly than with the other compounds
- convulsant type in mice (mice): clonic convulsant
- NOAEL [7]: 2.24 mg/kg
- convulsant dose (Rats): 5 mg/kg
- dose causing death (Rats): 10 mg/kg
- minimal effective dose ([2]; Rattus norvegicus, ip, rats, intraperitoneal injection, read-out: dose antagonising pentobarbitone): 5 mg/kg
- ED50 ([2]; Rattus norvegicus, ip, rats): 7.4 mg/kg
- selectivity as analeptic ([2]; compared with bemegride and leptazol): more selective anti-phenobarbitone action
- analeptic potency compared with bemegride ([2]; rats, 50% reduction of "sleeping time"): more potent than bemegride
- GABA antagonist activity (GABAergic system): GABA (gamma-amino-butyric acid) antagonist
- effect on the cardiovascular system (cardiovascular system): transient depressant effect on the heart and a sustained pressor response
- effect on isolated rabbit heart (isolated rabbit heart; perfusion, 100 μg/ml, preliminary experiments): negative inotropic effect culminating in complete but reversible cardiac arrest in diastole
- effect on rat heart, larger doses (rat heart; larger doses): complete heart block
- reversibility of heart block (rat heart; on washing out, no apparent impairment of function): rapidly reversed on washing out
- effect on rat heart, small doses (rat heart; small doses): reduce contractability of the rat heart
- dose producing a sustained pressor response [8]: ≥ 0.5 mg
- pressor response in pithed rats (pithed rats): abolished
- response to nerve stimulation [9]: increased response to nerve stimulation
- neuromuscular transmission at higher concentrations ([9]; higher concentrations): failure in neuromuscular transmission
- minimal effective concentration ([10]; Rattus norvegicus, direct action on the muscle, dose dependent, concentrations as low as, read-out: lowest concentration giving marked potentiation): 12.5 µg/mL
- concentration giving complete neuromuscular block ([10]; higher concentrations): 100 µg/mL
- reversal of block by washing ([10]; washing): readily reversed by washing
- time for removal of potentiation by washing ([10]; washing, more slowly removed than block): 60 min
- edibility of treated fish (guppies; almost immediately after treatment): edible almost immediately
- subsequent symptoms after recovery (guppies; guppies removed into fresh water): no subsequent symptoms
- time to complete recovery (guppies; guppies removed into fresh water after ten minutes at approximately 10^-6 M): approximately twenty
- time to restless movement (guppies; guppies, approximately 10^-6 M): two
- time to wild swimming, convulsion and coma with the body bent laterally (guppies; guppies, approximately 10^-6 M): ten
- release of fry from viviparous fish (viviparous fish): highly effective
- lipophilicity ([1]; due to the polyacetylene chain): lipophilic
- stability to air and light [5]: readily decomposed to a brown material
- stability to air and light ([5]; listed as trans-cunaniol): unstable to oxygen and light
- storage stability ([5]; solid under n-hexane, in the dark, in a refrigerator): could be kept for years

Compound: CC#CC#CC#C/C=C/C1OCCCC1OC1C=C[C@H](OC(C)=O)[C@@H](COC(C)=O)O1 (stereo partly shown) [glycoside]
- liberation of cunaniol on hydrolysis ([5]; hydrolysis of the glycoside link): readily liberated on hydrolysis

Compound: C1CCc2nnnn2CC1 [leptazol]
- similarity of convulsant actions to cunaniol (mice): mimicked closely

Compound: CN(C)C(=O)Oc1cccc([N+](C)(C)C)c1 [neostigmine, reference compound]
- reversal of neuromuscular block by neostigmine ([10]; block by cunaniol, i.e. not curare-like): not reversed

Compound: CCC1(c2ccccc2)C(=O)NC(=O)NC1=O [phenobarbitone, reference compound]
- antagonism of cunaniol convulsant action (central nervous system): antagonised
- antagonism of responses of guppies to cunaniol (guppies; in vivo): readily antagonises all responses

Compound: C=C(C)[C@H]1Cc2c(ccc3c2O[C@@H]2COc4cc(OC)c(OC)cc4[C@@H]2C3=O)O1 [rotenone]
- toxicity to mice (mice; metabolic toxin, comparison): highly toxic to mice
- similarity of convulsant actions to cunaniol (mice): qualitatively different from the convulsants
- reversibility in isolated rabbit heart (isolated rabbit heart; similar experiment with rotenone): did not exhibit the reversibility

Compound: O=C1C[C@@H]2OCC=C3CN4CC[C@]56c7ccccc7N1[C@H]5[C@H]2[C@H]3C[C@H]46 [strychnine]
- convulsant type in mice (mice): tonic convulsions
- similarity of convulsant actions to cunaniol (mice): differed

Compound: CN1C(=O)OC(C)(C)C1=O [troxidone, reference compound]
- antagonism of cunaniol convulsant action (central nervous system): antagonised

Compound: picrotoxin
- similarity of convulsant actions to cunaniol (mice): less closely
